Where two headings read alike, the source gives them in different places.
Assays:
[1] = test system: rats; conditions: force-feeding, table of Neumann; cited from earlier work
[2] = extraction of tin from blow molded vinyl chloride polymer bottles; assay type: physicochemical; conditions: 49° C
Procedure: A number of 16 ounce (475 cc) capacity cylindrical bottles were prepared by blow molding using the following formulation: […]
The three stabilizers evaluated were n-octyltin-S,S',S"-tri(isooctyl mercaptoacetate), di-n-octyltin-S,S'-bis(isooctyl mercaptoacetate) and a mixture containing equal parts by weight of these two compounds.
The bottles were filled with the desired extractant and then placed in an oven maintained at a temperature of 49° C. for the time periods specified in the following table. A portion of the contents of the bottle was then analyzed to determine the concentration of tin.

[3] = relative acute toxicity of the isooctylmercaptoacetate derivatives; assay type: in vivo
Source text: This is contrary to the generally accepted, although inaccurate, generalization that a monoalkyltin compound is less toxic than the corresponding di- and trialkyltin compounds. […] This finding directly contradicts data concerning the relative toxicities of mono-, di- and triorganotin compounds that were published prior to March, 1973, the filing date of Applicant's earliest application disclosing the present stabilizer compositions.

[4] = test system: albino rats; assay: acute oral median lethal dose in young male albino rats; assay type: in vivo, rat
Procedure: Young albino rats were used as the test animals. All animals were kept under observation for five days prior to experimental use, during which period they were checked for general physical health and suitability as test animals. The animals were housed in stock cages and were permitted a standard laboratory diet plus water ad libitum, except during the 16-hour period immediately prior to oral intubation, when food was withheld.
Selected groups of four male albino rats each were administered the undiluted test material at dose levels of 900, 1350, 2,025 and 3,038 mg. per kilogram of body weight. All doses were administered directly into the stomachs of the rats using a hypodermic syringe equipped with a ball-tipped intubating needle.
After oral administration of the test material, the rats were housed individually in suspended, wire-mesh cages and observed for the following 14 days. A necropsy was conducted on any animal which died during the study and on all animals sacrificed at the end of the 14-day observation period.
The acute oral median lethal dose (LD50) was calculated using the techniques of Weil, Thompson and Thompson and Weil as reported in the following references: […]

[5] = test system: beagle dogs; assay: 13 week feeding study in beagle dogs; assay type: in vivo, dog
Procedure: A second feeding study was conducted for a period of 13 weeks using beagle dogs to determine the maximum concentration of the mono-n-octyltin mercaptoacetic acid esters of this invention which can be present in the food of these animals without causing any observable toxicological effect. This concentration level is referred to as the "no-effect level" by the United States Food and Drug Administration. A stabilizer of this invention mono-n-octyltin S,S',S"-tris(isooctylmercaptoacetate) was added to the food consumed by the dogs in amounts of 0, 100, 300 and 1,000 parts per million. […] This level of toxicity is considered to be unexpectedly low for an organotin compound.
The criteria employed to determine the absence of toxicological effects included general appearance, health, growth and food intake; blood analyses for enzyme activity and serum protein; kidney damage by urine analysis; change in weight of internal organs and presence of the tin compound in the kidneys, bones, brain, liver and blood.

[6] = migration from milled/pressed polyvinyl chloride sheet into extractants (colorimetric tin analysis); assay type: physicochemical; conditions: 10 days, 40° C; distilled water, 3% acetic acid, peanut oil, 10% ethanol; 1.5 parts stabilizer
Procedure: A mixture containing 100 parts of a commercially available vinyl chloride homopolymer(Solvic 223), 0.02 part of a half glycol ester -half calcium soap of montanic acid (available as Hoechst Wax OP) together with 1.5 parts of mono-n-octyltin-S,S',S"-tris(isooctylmercaptoacetate) was blended by placing the components on a 2-roll mill wherein the roll temperature was between 160° and 170° C. During the three minute milling period a continuous sheet formed around one of the rollers and was removed. The sheet measured 1.3 m.m. in thickness and about 300 cm.^2 in area. The sheet was pressed at a temperature of 170° C. to obtain a thickness of 1.2 m.m. The total pressing time, including a two minute preheating period, was five minutes. Square samples measurng 30 cm.^2 in total surface area were immersed in one of the extractants for 10 days, during which time the temperature of the extractant was maintained at 40° C. The extractants employed were distilled water, a 3% aqueous solution of acetic acid, peanut oil and a 10% by weight aqueous solution of ethanol. […] The quantity of peanut oil was 30 c.c.
The migration of stabilizer from the polyvinyl chloride sample into the extractant was determined by measuring the concentration of tin in the extractant using colormetric analysis of the tin - pyrocatechol violet complex. […]

[7] = prior art statements; cited from earlier work
[8] = compared with di- and trioctyltin chlorides, cited from earlier work
[9] = 3% Acetic Acid (aqueous), 24 hours
[10] = 3% Acetic Acid (aqueous), 48 hours
[11] = 3% Acetic Acid (aqueous), 72 hours

Compound	LD50 (lethal dose for 1/2 the population) [1]	Tin Content [2, 9] [ppm]	Tin Content [2, 10] [ppm]	Tin Content [2, 11] [ppm]	Tin Content ([2]; 8% Ethanol (aqueous), 24 hours) [ppm]	Tin Content ([2]; 50% Ethanol, 24 hours) [ppm]	Tin Content ([2]; 50% Ethanol, 48 hours) [ppm]	Tin Content ([2]; 50% Ethanol, 72 hours) [ppm]	Tin Content ([2]; Distilled Water, 72 hours) [ppm]	Tin Content ([2]; Distilled Water, 96 hours) [ppm]	Tin Content ([2]; Distilled Water, 120 hours) [ppm]	Tin Content ([2]; Heptane, 6 hours) [ppm]	Tin Content ([2]; Heptane, 8 hours) [ppm]	Tin Content ([2]; Heptane, 10 hours) [ppm]	also measured
di-n-octyltin maleate	4,500 mg per kilogram of body weight														
CCCCCCC[CH2][Sn]([S]CC(=O)OCCCCCC(C)C)([S]CC(=O)OCCCCCC(C)C)[S]CC(=O)OCCCCCC(C)C [A, mono-n-octyltin-S,S',S"--tris(isooctyl mercaptoacetate)]		0.02	0.03	0.02	0.00	0.01	0.02	0.02	0.00	0.00	0.00	0.02	0.03	0.03	relative acute toxicity (in words) ([3]; isooctylmercaptoacetate derivatives, mono- vs di- and tri-n-octyltin): the least toxic; toxicity relative to corresponding di-n-octyltin compound (in words) ([3]; vs di-n-octyltin compound of Gloskey patent): less toxic than the corresponding di-n-octyltin compound; acute oral median lethal dose (LD50) ([4]; male albino rats, oral intubation, undiluted, 14 days observation): 2.48 g. per kilogram of weight; LD50 relative to other conventional organotin stabilizers (in words) ([4]; vs other conventional organotin compounds employed as non-toxic stabilizers): considerably higher than the values for other conventional organotin compounds; no-effect level ([5]; beagle dogs, 13 weeks, in food): 300 parts per million; no effect level (in words) ([5]; long term feeding studies): sufficiently low; amount of stabilizer extracted [6]: ≤ 0.05 mg. per square decimeter
[Cl][Sn][Cl] [stannous chloride]															toxicity (in words) [7]: relatively little, if any, toxicity
CCCCCCC[CH2][Sn]([Cl])([Cl])[Cl] [monooctyltin trichloride]															acute oral toxicity (relative, in words) [8]: greater than the toxicity of either dioctyltin dichloride or trioctyltin chloride; acute oral toxicity (relative, in words) ([8]; listed as mono-n-octyltin trichloride): significantly more severe than the corresponding di- or tri-n-octyltin chlorides
CCCCCCC[CH2][Sn]([CH2]CCCCCCC)([S]CC(=O)OCCCCCC(C)C)[S]CC(=O)OCCCCCC(C)C [B, di-n-octyltin-S,S'--bis(isooctyl mercaptoacetate), reference compound]	1975 mg per kilogram of body weight	0.00	0.00	0.00	0.00	0.03	0.05	0.03	0.00	0.00	0.00	0.03	0.02	0.02	
bis(tri-n-octyltin) sulfate	greater than 6,000 mg per kilogram of body weight														

Reference: patent publication USRE32935E, “Non-toxic organotin stabilizers for vinyl chloride polymers” (M&T Chemicals, Inc., priority 1985, dated 1989)
